In the CheMixHub viscosity set:

Assay: xn = mol fraction of the nth substance listed

Cc1c[nH]c(=O)[nH]c1=O + O
viscosity [mPa·s], 101.3 kPa
Conditions	293.15 K	298.15 K	303.15 K	308.15 K	313.15 K	318.15 K
x1 = 0.000119	1.006	0.895	0.803	0.738	0.623	0.595
x1 = 0.000164	–	0.893	–	0.722	–	0.598
x1 = 0.0001877	1.008	0.897	0.805	0.74	0.625	0.597
x1 = 0.000266	–	0.895	–	0.723	–	0.6
x1 = 0.0003006	1.01	0.899	0.807	0.742	0.627	0.599
x1 = 0.0003339	–	0.896	–	0.724	–	0.6
x1 = 0.0003713	–	0.896	–	0.724	–	0.601
x1 = 0.0003733	1.012	0.901	0.809	0.744	0.629	0.601
x1 = 0.0004194	–	0.897	–	0.725	–	0.601
x1 = 0.0004572	1.014	0.903	0.811	0.746	0.631	0.603
x1 = 0.0004811	–	0.898	–	0.726	–	0.602
x1 = 0.0005454	1.016	0.905	0.813	0.748	0.633	0.605

CCCCCCCCCCCC(=O)OC + CCCCCCCCCC(=O)OCC
viscosity [mPa·s], 100 kPa
Conditions	298.15 K	308.15 K	318.15 K
x2 = 0.04836	2.784	2.203	1.856
x2 = 0.1051	2.725	2.165	1.824
x2 = 0.1954	2.649	2.106	1.778
x2 = 0.3128	2.556	2.041	1.723
x2 = 0.4082	2.482	1.988	1.677
x2 = 0.5008	2.417	1.945	1.639
x2 = 0.5987	2.348	1.897	1.601
x2 = 0.6571	2.307	1.87	1.582
x2 = 0.7044	2.274	1.849	1.567
x2 = 0.8	2.211	1.806	1.533
x2 = 0.8986	2.147	1.763	1.497

CCOC(C)=O + CCCCO
298.15 K
Conditions	viscosity [mPa·s]
101 kPa, x2 = 0.12	0.48
101 kPa, x2 = 0.23	0.51
101 kPa, x2 = 0.34	0.578
101 kPa, x2 = 0.44	0.648
101 kPa, x2 = 0.54	0.79
101 kPa, x2 = 0.64	0.987
101 kPa, x2 = 0.73	1.165
101 kPa, x2 = 0.83	1.425
101 kPa, x2 = 0.91	1.815
101.33 kPa, x2 = 0.1338	0.468
101.33 kPa, x2 = 0.2522	0.517
101.33 kPa, x2 = 0.3724	0.599
101.33 kPa, x2 = 0.4809	0.691
101.33 kPa, x2 = 0.5952	0.838
101.33 kPa, x2 = 0.7033	1.041
101.33 kPa, x2 = 0.801	1.331
101.33 kPa, x2 = 0.8918	1.741

COC(=O)CC(C)=O + CCO
viscosity [mPa·s], 101.3 kPa
Conditions	x1 = 0.1051	x1 = 0.204	x1 = 0.3085	x1 = 0.4046	x1 = 0.507	x1 = 0.607	x1 = 0.7033	x1 = 0.8022	x1 = 0.902
298.15 K	0.96	0.942	0.965	0.995	1.057	1.121	1.202	1.3	1.422
303.15 K	0.879	0.866	0.883	0.913	0.968	1.027	1.099	1.187	1.294
308.15 K	0.806	0.798	0.814	0.841	0.892	0.946	1.011	1.092	1.186

CCCCCCCCCCCC(=O)OC + C1C[C@@H]2[C@H]3CC[C@H](C3)[C@@H]2C1
viscosity [mPa·s], 100 kPa
Conditions	x2 = 0.1012	x2 = 0.2004	x2 = 0.3001	x2 = 0.4004	x2 = 0.5021	x2 = 0.6003	x2 = 0.7003	x2 = 0.8001	x2 = 0.8991
293.15 K	3.062	3.012	2.973	2.927	2.896	2.874	2.864	2.877	2.909
298.15 K	2.73	2.69	2.659	2.625	2.599	2.585	2.58	2.595	2.628
303.15 K	2.454	2.419	2.397	2.369	2.349	2.339	2.338	2.356	2.388
308.15 K	2.218	2.191	2.173	2.152	2.134	2.129	2.13	2.149	2.183
313.15 K	2.018	1.994	1.98	1.963	1.951	1.946	1.949	1.969	2.001
318.15 K	1.844	1.824	1.813	1.799	1.789	1.787	1.791	1.811	1.841
323.15 K	1.693	1.676	1.668	1.656	1.647	1.647	1.652	1.672	1.702

CC(C)[C@H](N)C(=O)[O-].[Na+] + O
viscosity [mPa·s], 101 kPa
Conditions	x1 = 0.004484	x1 = 0.008927	x1 = 0.01333	x1 = 0.0177	x1 = 0.02202	x1 = 0.02631
293.15 K	1.165	1.356	1.571	1.816	2.087	2.385
303.15 K	0.919	1.057	1.214	1.382	1.573	1.786
313.15 K	0.747	0.85	0.969	1.094	1.233	1.387
323.15 K	0.621	0.702	0.793	0.889	0.994	1.11

[O-][Cl+3]([O-])([O-])O[Cl+3]([O-])([O-])[O-] + O
293.15 K, 101.33 kPa
Conditions	viscosity [mPa·s]
x1 = 0.428	1.179
x1 = 0.46	0.949
x1 = 0.474	0.893
x1 = 0.491	0.821
x1 = 0.499	0.796
x1 = 0.51	0.762
x1 = 0.519	0.754
x1 = 0.602	0.726
x1 = 0.711	0.714
x1 = 0.787	0.713
x1 = 0.818	0.709
x1 = 0.906	0.708

CCCC[P+](CC)(CCCC)CCCC.[Br-] + O
Conditions	viscosity [mPa·s]
303.15 K, 101 kPa, x1 = 0.008931	1.225

COc1ccc(C=O)cc1 + Cc1ccc(O)cc1
Conditions	viscosity [mPa·s]
308.15 K, 101 kPa, x1 = 0.8868	3.965

CCOc1ccccc1 + CCOCC
298.15 K, 101 kPa
Conditions	viscosity [mPa·s]
x2 = 0.0745	1.027
x2 = 0.0975	0.9993
x2 = 0.1855	0.8671
x2 = 0.2523	0.7856
x2 = 0.3026	0.7152
x2 = 0.3516	0.6667
x2 = 0.4501	0.5713
x2 = 0.5106	0.5154
x2 = 0.5579	0.4809
x2 = 0.6048	0.4406
x2 = 0.6882	0.3866
x2 = 0.7485	0.3494
x2 = 0.8303	0.3057
x2 = 0.9004	0.2674

COc1ccc(C=O)cc1 + Cc1ccccc1
viscosity [mPa·s], 101 kPa
Conditions	x1 = 0.0899	x1 = 0.1818	x1 = 0.2759	x1 = 0.3721	x1 = 0.4706	x1 = 0.5714	x1 = 0.6747	x1 = 0.7805	x1 = 0.8889
303.15 K	0.5703	0.6449	0.7185	0.9019	1.099	1.356	1.551	2.61	2.857
308.15 K	0.5414	0.6128	0.6929	0.8502	1.018	1.258	1.388	2.218	2.505
313.15 K	0.512	0.5751	0.6448	0.7809	0.9332	1.122	1.259	2.011	2.165
318.15 K	0.4586	0.5216	0.5862	0.7004	0.8327	0.9898	1.098	1.65	1.825

COc1ccc(C=O)cc1 + Cc1cccc(O)c1
Conditions	viscosity [mPa·s]
318.15 K, 101 kPa, x1 = 0.4656	4.085

CCOc1ccccc1 + CCCCCCCO
viscosity [mPa·s], 101.3 kPa
Conditions	x1 = 0.0989	x1 = 0.1998	x1 = 0.2988	x1 = 0.4017	x1 = 0.5011	x1 = 0.6101	x1 = 0.7004	x1 = 0.8009	x1 = 0.9031
293.15 K	5.488	4.237	3.317	2.62	2.147	1.814	1.606	1.47	1.388
298.15 K	4.761	3.758	2.978	2.379	1.916	1.583	1.412	1.295	1.252
308.15 K	3.737	2.957	2.382	1.91	1.58	1.318	1.171	1.066	1.001
318.15 K	2.785	2.261	1.846	1.517	1.28	1.083	0.9726	0.8947	0.8422

CCOc1ccccc1 + CCO
298.15 K, 101 kPa
Conditions	viscosity [mPa·s]
x2 = 0.3183	1.067
x2 = 0.5186	1.035
x2 = 0.6605	1.01
x2 = 0.764	0.997
x2 = 0.8437	0.991
x2 = 0.9064	1
x2 = 0.9609	1.035
